Experimental data: patent US6630174B2, “Methods and compositions for retarding and eradicating infestation in trees and tree derived products” (Nisus Corporation, priority 1990, dated 2003)

Columns and labels:
[1] = test system: broad spectrum of infestation; test: Boron concentration effective against infestation; type: in vivo; settings: concentration in the wood
dry wood termites = settings: in vivo; cited from earlier work

Row | SMILES | concentration generally effective for preventing or eradicating a broad spectrum of infestation [1] | boron concentration efficacious against dry wood termites (dry wood termites)
1 | O.O.O.O.O=BOB1OB(OB=O)OB2OB([O-])OB([O-])OB(O1)O2.[Na+].[Na+] [DOT, disodium octaborate tetrahydrate] | 2400 ppm | 
2 | [B] [boron] | 500 ppm | 100 parts per million
